Measurements taken from ChEMBL document CHEMBL1152037, “Novel peptidomimetics: inhibitors of substance P endopeptidase” (Bioorg Med Chem Lett, 1992).
Peptide text beside a SMILES is read from it. * marks the point of attachment. X1 = CSCC[C@H](NC(=O)[C@H](CC(C)C)NC(=O)CNC(=O)C(/C=C/[C@H](Cc1ccccc1)N*)(Cc1ccccc1)Cc1ccccc1)C(N)=O

Assays:
[1] = Ability to inhibit substance P endopeptidase at concentration of 1.5 uM
[2] = Ability to inhibit substance P endopeptidase at concentration of 10 uM

inhibition [1]	inhibition [2]	SMILES
50%	–	N[C@H](/C=C/C(CO)(Cc1ccccc1)Cc1ccccc1)Cc1ccccc1
–	50%	CSCC[C@H](NC(=O)[C@H](CC(C)C)NC(=O)CNC(=O)C(/C=C/[C@H](Cc1ccccc1)NC(=O)[C@H](CCC(N)=O)NC(=O)[C@H](CCC(N)=O)NC(=O)[C@@H]1CCCN1C(=O)[C@H](CCCCN)NC(=O)[C@@H]1CCCN1C(=O)[C@@H](N)CCCN=C(N)N)(Cc1ccccc1)Cc1ccccc1)C(N)=O (H-RPKPQQ-X1)
